# Test results: PubChem BioAssay AID1919006 (Molecular Pharmacology Branch, DTP, NCI, 2023)
# System: 885512-296-R-J2-PDC complex spheroid growth, % test/control
# Assay: Anticancer human tumor 885512-296-R-J2-PDC patient-derived breast carcinoma cell line growth inhibition [AhR]
# Conditions: for IC50: curve of first compound; for viability, T/C: stronger effect = lower value
# Outline: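 Agents were dosed in half-log steps down from roughly clinical Cmax, or from 10 microM where Cmax was unknown, alone and with AhR antagonists. Read-out: percent test/control growth of tumor spheroids containing HUVEC and MSC stromal cells.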
# [1] = second compound 0.1 µM, first compound 0.0316 µM
# [2] = second compound 0.1 µM, first compound 0.1 µM
# [3] = second compound 0.1 µM, first compound 0.316 µM
# [4] = second compound 0.1 µM, first compound 1 µM
# [5] = second compound 0.1 µM, first compound 3.16 µM
# [6] = second compound 0.1 µM, first compound 10 µM
# [7] = second compound 0.316 µM, first compound 0.0316 µM
# [8] = second compound 0.316 µM, first compound 0.1 µM
# [9] = second compound 0.316 µM, first compound 0.316 µM
# [10] = second compound 0.316 µM, first compound 1 µM
# [11] = second compound 0.316 µM, first compound 3.16 µM
# [12] = second compound 0.316 µM, first compound 10 µM
# [13] = second compound 1 µM, first compound 0.0316 µM
# [14] = second compound 1 µM, first compound 0.1 µM
# [15] = second compound 1 µM, first compound 0.316 µM
# [16] = second compound 1 µM, first compound 1 µM
# [17] = second compound 1 µM, first compound 3.16 µM
# [18] = second compound 1 µM, first compound 10 µM
# [19] = second compound 3.16 µM, first compound 0.0316 µM
# [20] = second compound 3.16 µM, first compound 0.1 µM
# [21] = second compound 3.16 µM, first compound 0.316 µM
# [22] = second compound 3.16 µM, first compound 1 µM
# [23] = second compound 3.16 µM, first compound 3.16 µM
# [24] = second compound 3.16 µM, first compound 10 µM
# [25] = second compound 10 µM, first compound 0.0316 µM
# [26] = second compound 10 µM, first compound 0.1 µM
# [27] = second compound 10 µM, first compound 0.316 µM
# [28] = second compound 10 µM, first compound 1 µM
# [29] = second compound 10 µM, first compound 3.16 µM
# [30] = second compound 10 µM, first compound 10 µM
# 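Note: spheroids exposed to compounds for seven days.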
IC50 (second compound 0.1 µM),IC50 (second compound 0.316 µM),IC50 (second compound 1 µM),IC50 (second compound 3.16 µM),IC50 (second compound 10 µM),SMILES,"viability, T/C [1]","viability, T/C [2]","viability, T/C [3]","viability, T/C [4]","viability, T/C [5]","viability, T/C [6]","viability, T/C [7]","viability, T/C [8]","viability, T/C [9]","viability, T/C [10]","viability, T/C [11]","viability, T/C [12]","viability, T/C [13]","viability, T/C [14]","viability, T/C [15]",further results
< 31.6 nM,< 31.6 nM,< 31.6 nM,< 31.6 nM,< 31.6 nM,Nc1ccn(C2OC(CO)C(O)C2(F)F)c(=O)n1 (stereo not given) + Cc1ccccc1N=Nc1ccc(NC(=O)c2ccnn2C)c(C)c1,3.22%,3.21%,3.37%,3.91%,5.19%,4.82%,3.01%,3.13%,3.98%,4.91%,7.26%,4.9%,3.39%,3.19%,5.43%,"viability, T/C [16]: 5.88%; viability, T/C [17]: 5.6%; viability, T/C [18]: 6.93%; viability, T/C [19]: 3.31%; viability, T/C [20]: 3.09%; viability, T/C [21]: 5.1%; viability, T/C [22]: 5.57%; viability, T/C [23]: 4.88%; viability, T/C [24]: 5.93%; viability, T/C [25]: 3.17%; viability, T/C [26]: 3.46%; viability, T/C [27]: 4.17%; viability, T/C [28]: 4.62%; viability, T/C [29]: 5.33%; viability, T/C [30]: 5.12%"
871 nM,1160 nM,1090 nM,773 nM,33.8 nM,O=C(C=Cc1cccc(S(=O)(=O)Nc2ccccc2)c1)NO + Cc1ccccc1N=Nc1ccc(NC(=O)c2ccnn2C)c(C)c1,84.5%,82.9%,67.6%,45%,27.8%,7.04%,86.4%,85.8%,80.8%,47.8%,30.6%,7.44%,88.2%,85.5%,68.9%,"viability, T/C [16]: 51.4%; viability, T/C [17]: 29.8%; viability, T/C [18]: 7.53%; viability, T/C [19]: 73.8%; viability, T/C [20]: 73%; viability, T/C [21]: 67.5%; viability, T/C [22]: 40.6%; viability, T/C [23]: 28.2%; viability, T/C [24]: 6.85%; viability, T/C [25]: 51%; viability, T/C [26]: 46.8%; viability, T/C [27]: 41.9%; viability, T/C [28]: 32.5%; viability, T/C [29]: 27.6%; viability, T/C [30]: 7.31%"
5920 nM,5820 nM,5520 nM,4790 nM,3440 nM,O=C(c1cc(Cc2n[nH]c(=O)c3ccccc23)ccc1F)N1CCN(C(=O)C2CC2)CC1 + Cc1ccccc1N=Nc1ccc(NC(=O)c2ccnn2C)c(C)c1,118%,135%,147%,117%,83.7%,22.6%,138%,145%,138%,130%,80%,23.4%,121%,133%,132%,"viability, T/C [16]: 109%; viability, T/C [17]: 80.4%; viability, T/C [18]: 18.7%; viability, T/C [19]: 110%; viability, T/C [20]: 103%; viability, T/C [21]: 111%; viability, T/C [22]: 101%; viability, T/C [23]: 66.6%; viability, T/C [24]: 20.8%; viability, T/C [25]: 67.1%; viability, T/C [26]: 59.5%; viability, T/C [27]: 66.4%; viability, T/C [28]: 70.8%; viability, T/C [29]: 52.6%; viability, T/C [30]: 17.5%"
